Calls of active or inactive are those of the source.
What was measured:
Procathepsin L = Procathepsin L (Homo sapiens, UniProt P07711); experiment: cathepsin L inhibitors, dose response, counter-screen for M1/M17 aminopeptidase inhibitor project, biochemical, QFRET, 1536-well (AID 2214)
Aspartyl aminopeptidase = molecular target: T1, Aspartyl aminopeptidase (Plasmodium falciparum 3D7, UniProt Q8I2J3); experiment: Counterscreen for inhibitors of M1 and M17 aminopeptidases: QFRET-based biochemical high throughput dose response assay for inhibitors of the Plasmodium falciparum M18 Aspartyl Aminopeptidase (PFM18AAP). [Related PubChem assays: 1619 (Screening assay (M17LAP inhibitors).), 1445 (Screening assay (M1AAP inhibitors).)]
T1 sequence (Q8I2J3 whole entry): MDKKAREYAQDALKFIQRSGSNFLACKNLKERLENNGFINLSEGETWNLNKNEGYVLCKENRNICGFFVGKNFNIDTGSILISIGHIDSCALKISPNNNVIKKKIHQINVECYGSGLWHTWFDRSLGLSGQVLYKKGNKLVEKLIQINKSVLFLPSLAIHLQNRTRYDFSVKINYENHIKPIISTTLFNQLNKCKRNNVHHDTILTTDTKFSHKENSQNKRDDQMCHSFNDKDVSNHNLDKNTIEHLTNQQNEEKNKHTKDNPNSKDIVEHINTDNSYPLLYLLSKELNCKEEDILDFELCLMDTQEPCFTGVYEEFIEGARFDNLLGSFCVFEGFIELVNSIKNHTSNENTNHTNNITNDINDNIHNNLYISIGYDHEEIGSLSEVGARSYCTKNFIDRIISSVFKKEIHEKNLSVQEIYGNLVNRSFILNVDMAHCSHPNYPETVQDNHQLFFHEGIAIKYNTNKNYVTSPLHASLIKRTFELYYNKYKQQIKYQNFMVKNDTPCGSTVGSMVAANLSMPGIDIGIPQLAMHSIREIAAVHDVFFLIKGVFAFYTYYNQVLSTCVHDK

Leucine aminopeptidase = molecular target: T2, Leucine aminopeptidase (Plasmodium falciparum 3D7, UniProt Q8IL11); experiment: P. falciparum M17LAP inhibitors, primary screen, biochemical, fluorogenic H-Leu-NHMec substrate, 1536-well (AID 1619); format: functional
T2 sequence (Q8IL11 whole entry): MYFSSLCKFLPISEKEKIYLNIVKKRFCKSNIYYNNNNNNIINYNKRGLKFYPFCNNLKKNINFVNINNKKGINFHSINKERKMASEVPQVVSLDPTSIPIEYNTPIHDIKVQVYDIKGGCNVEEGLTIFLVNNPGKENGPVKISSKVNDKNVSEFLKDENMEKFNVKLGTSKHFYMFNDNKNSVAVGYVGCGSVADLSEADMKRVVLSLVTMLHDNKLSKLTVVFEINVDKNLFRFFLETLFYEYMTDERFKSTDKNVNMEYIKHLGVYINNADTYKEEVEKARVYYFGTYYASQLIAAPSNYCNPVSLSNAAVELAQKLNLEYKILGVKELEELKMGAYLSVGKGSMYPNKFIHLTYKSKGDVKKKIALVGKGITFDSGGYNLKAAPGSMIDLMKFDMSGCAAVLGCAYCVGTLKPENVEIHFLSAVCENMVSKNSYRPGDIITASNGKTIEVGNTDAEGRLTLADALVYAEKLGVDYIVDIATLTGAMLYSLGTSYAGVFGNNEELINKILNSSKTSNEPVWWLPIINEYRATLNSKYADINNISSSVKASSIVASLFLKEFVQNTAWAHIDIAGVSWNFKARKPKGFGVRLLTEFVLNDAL

Bcl-2-like protein 10 = molecular target: T3, Bcl-2-like protein 10 (Homo sapiens, UniProt Q9HD36); experiment: displacers of TR3 peptide from Bcl-B, primary screen, selectivity assay for Bfl-1 inhibitor project, biochemical, fluorescence polarization, FITC-TR3 peptide (AID 748);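 further: fluorescence polarization from a fluorescein-labelled TR3 peptide binding purified Bcl-B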
T3 sequence (Q9HD36 whole entry): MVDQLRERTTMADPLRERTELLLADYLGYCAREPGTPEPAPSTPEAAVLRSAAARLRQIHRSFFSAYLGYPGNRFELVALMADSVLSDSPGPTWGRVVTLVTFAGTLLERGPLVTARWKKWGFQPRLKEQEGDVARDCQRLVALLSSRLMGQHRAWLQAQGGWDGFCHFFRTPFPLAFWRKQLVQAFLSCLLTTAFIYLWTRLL

Estrogen receptor = molecular target: T4, Estrogen receptor (Homo sapiens, UniProt P03372); experiment: potentiators of ERα–SRC-1 coactivator binding, dose response, biochemical, TR-FRET, ERα LBD (AID 737)
T4 sequence (P03372 whole entry): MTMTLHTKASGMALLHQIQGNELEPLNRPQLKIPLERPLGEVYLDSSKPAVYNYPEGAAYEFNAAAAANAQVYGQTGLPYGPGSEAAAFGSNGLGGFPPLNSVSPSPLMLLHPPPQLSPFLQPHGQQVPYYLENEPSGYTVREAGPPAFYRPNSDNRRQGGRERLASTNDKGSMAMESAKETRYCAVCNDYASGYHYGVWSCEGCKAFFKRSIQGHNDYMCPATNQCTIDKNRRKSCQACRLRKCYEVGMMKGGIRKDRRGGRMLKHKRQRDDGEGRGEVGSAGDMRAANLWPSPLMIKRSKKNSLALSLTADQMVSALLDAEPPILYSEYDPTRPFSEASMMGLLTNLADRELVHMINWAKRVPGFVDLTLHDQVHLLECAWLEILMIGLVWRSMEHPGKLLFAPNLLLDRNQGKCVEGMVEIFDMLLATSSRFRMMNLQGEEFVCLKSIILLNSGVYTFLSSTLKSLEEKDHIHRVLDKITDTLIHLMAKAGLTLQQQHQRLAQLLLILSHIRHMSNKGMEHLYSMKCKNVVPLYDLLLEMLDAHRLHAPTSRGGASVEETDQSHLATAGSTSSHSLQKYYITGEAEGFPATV

Caspase-3 = molecular target: T5, Caspase-3 (Homo sapiens, UniProt P42574); experiment: procaspase-3 activation potency of dual hits, dose response, counter-screen for dual procaspase-3/7 activator project, biochemical, absorbance, PC-3 D3A mutant (AID 504328)
T5 sequence (P42574 whole entry): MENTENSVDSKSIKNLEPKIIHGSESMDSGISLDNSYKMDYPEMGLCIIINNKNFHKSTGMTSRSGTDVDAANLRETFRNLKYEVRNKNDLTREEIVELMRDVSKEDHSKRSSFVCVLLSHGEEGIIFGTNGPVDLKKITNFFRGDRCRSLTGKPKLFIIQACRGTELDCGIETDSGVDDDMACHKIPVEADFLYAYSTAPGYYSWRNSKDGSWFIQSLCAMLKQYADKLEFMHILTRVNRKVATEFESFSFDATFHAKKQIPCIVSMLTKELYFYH

Caspase-7 = molecular target: T6, Caspase-7 (Homo sapiens, UniProt P55210); experiment: procaspase-7 activators, dose response, dual procaspase-3/-7 activator project, biochemical, absorbance, human (AID 504330)
T6 sequence (P55210 whole entry): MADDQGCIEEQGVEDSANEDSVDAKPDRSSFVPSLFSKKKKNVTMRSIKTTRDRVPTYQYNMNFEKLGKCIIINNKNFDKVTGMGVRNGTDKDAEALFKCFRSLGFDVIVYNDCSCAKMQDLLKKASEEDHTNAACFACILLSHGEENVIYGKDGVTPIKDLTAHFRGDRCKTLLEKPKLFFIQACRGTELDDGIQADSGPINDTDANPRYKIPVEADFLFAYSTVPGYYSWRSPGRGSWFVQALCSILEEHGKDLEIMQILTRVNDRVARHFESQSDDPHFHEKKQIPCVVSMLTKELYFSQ

[1] = A Cell Based Secondary Assay To Explore Cytotoxicity of Compounds that Sensitize Mycobacterium Tuberculosis to Beta-Lactam Antibiotics.; format: functional
Cytochrome P450 2D6 = Cytochrome P450 2D6 (Homo sapiens, UniProt P10635); experiment: qHTS Assay for Inhibitors and Substrates of Cytochrome P450 2D6. [Related pubchem assays: 410 ]; format: ADME; details: read-out: Potency
HeLa = experiment: Cytotoxicity counterscreen assay for transcriptional activators of heat shock protein 70 (Hsp70). [Related pubchem assays: 1203, 1252 ]; format: functional; details: Homo sapiens;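 further: cells exposed to compound for 16 hours before readout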
[2] = THP-1 cell cytotoxicity, dose response, cytotoxicity control for Vif-APOBEC3G degradation inhibitor project, THP-1 cells (AID 1117359); format: functional; details: Human immunodeficiency virus 1, THP-1
[3] = Luminescence Cell-Based Dose Retest to Confirm Inhibitors of Cancer Stem Cells. [Related pubchem assays (depositor defined):AID2717, AID2721]; format: functional; details: Homo sapiens
[4] = microbe, parasite or virus in culture; format: functional; details: Mycobacterium tuberculosis
[5] = molecular target: Neurotensin receptor type 1 (Homo sapiens, UniProt P30989); format: functional;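 further: Image-based confirmatory dose-response assay measuring agonist activity at NTR1; NTR1-expressing U2OS osteosarcoma cells imaged for beta-arrestin GFP spot formation; agonist potency where compounds increase beta-arrestin recruitment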
[6] = molecular target: Epstein-Barr nuclear antigen 1 (Epstein-Barr virus (strain B95-8) (HHV-4) (Human herpesvirus 4), UniProt P03211); experiment: EBNA-1 inhibitors, dose response, biochemical, fluorescence polarization, 1536-well (AID 2381); set-up: species or system human gammaherpesvirus 4;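 further: fluorescence polarization of a Cy5 DNA probe bound by EBNA-1 protein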
[7] = molecular target: Lytic switch protein BZLF1 (Epstein-Barr virus (strain B95-8) (HHV-4) (Human herpesvirus 4), UniProt P03206); experiment: EBV ZTA inhibitors, dose response, counter-screen for EBNA-1 inhibitor project, biochemical, fluorescence polarization, Epstein-Barr virus, 1536-well (AID 2377); set-up: species or system human gammaherpesvirus 4;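 further: fluorescence polarization of Cy5-labelled ZRE DNA probe bound by purified Zta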
[8] = inhibitors of SNCA 5'UTR-driven reporter translation, confirmation, H4 neuroglioma cells, luminescence (AID 1988); format: functional, cell-based
[9] = Luminescence Cell-Based Dose Response HTS to Identify Inhibitors of 5'UTR Stem-Loop Driven Prion Protein mRNA Translation in H4 Neuroglioblastoma Cells. [Related pubchem assays: 1827 (Project Summary), 1813 (Primary HTS)]; format: functional
[10] = inhibitors of firefly luciferase expression or activity, dose response, H4 neuroglioma cells, luminescence (AID 1990); format: functional, cell-based
Cytochrome P450 3A4 = Cytochrome P450 3A4 (Homo sapiens, UniProt P08684); details: Potency;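 further: confirmatory qHTS run detecting inhibitors and substrates of CYP3A4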
[11] = molecular target: T7, Kappa-type opioid receptor (Homo sapiens, UniProt P41145); experiment: SAR analysis of Antagonists of the Kappa Opioid Receptor (KOR) using an Image-Based Assay - Set 3. [Related pubchem assays (depositor defined):AID1777, AID1785]; format: functional
[12] = molecular target: T7, Kappa-type opioid receptor; experiment: SAR analysis of small molecule antagonists of the kappa opioid receptor via a luminescent beta-arrestin assay - Set 3. [Related pubchem assays (depositor defined):AID1777, AID1778, AID1785, AID1786, AID1966, AID2133, AID2136, AID2285, AID2495]; format: functional
[13] = molecular target: Delta-type opioid receptor (Homo sapiens, UniProt P41143); experiment: SAR Analysis of Antagonists of the DOR Receptor using an Image-Based Assay - Set 3. [Related pubchem assays (depositor defined):AID1777, AID1785]; format: functional;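 further: U2OS cells expressing DOR1 and beta-arrestin GFP stimulated with 100 nM SNC80; imaging of GFP-tagged beta-arrestin moving into spots after receptor activation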
Mu-type opioid receptor = Mu-type opioid receptor (Homo sapiens, UniProt P35372); experiment: SAR Analysis of Antagonists of the MOR Receptor using an Image-Based Assay - Set 3. [Related pubchem assays (depositor defined):AID1777, AID1785, AID1786, AID1966, AID2133, AID2136, AID2284, AID2285, AID2420]; format: functional
[14] = molecular target: DNA dC->dU-editing enzyme APOBEC-3G (Homo sapiens, UniProt Q9HC16); experiment: Dose Response confirmation of small molecule APOBEC3G DNA Deaminase Inhibitors via a fluorescence-based single-stranded DNA deaminase assay. [Related pubchem assays (depositor defined):AID493012, AID493028]; format: functional
[15] = molecular target: DNA dC->dU-editing enzyme APOBEC-3A (Homo sapiens, UniProt P31941); experiment: APOBEC3A DNA deaminase inhibitors, dose response, biochemical (AID 504722); format: functional
Large T antigen = Large T antigen (Simian virus 40, UniProt P03070); format: functional, Betapolyomavirus macacae;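 further: Confirmatory-stage PubChem screen for compounds that inhibit SV40 T antigen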

COC(=O)c1cccc(NC(=O)CSc2nc(C)cc(O)n2)c1
IC50 (Procathepsin L): > 59.6 µM (not active) | IC50 (Aspartyl aminopeptidase): > 73.5 µM (not active) | IC50 (Leucine aminopeptidase): 7.51 µM (active) | IC50 (Bcl-2-like protein 10): 56.8 µM (inactive)

COc1nc(-c2ccc(Cl)cc2)ccc1-c1noc(-c2ccco2)n1
EC50 (Estrogen receptor): 10.9 µM (active)

C=CCNC1=C(Cl)C(=O)N(c2cccc(Cl)c2Cl)C1=O
EC50 (Caspase-3): > 85.3 µM (inactive) | EC50 (Caspase-7): > 85.3 µM (inactive)

Cc1ccc(/C=C2/SC(=S)N(CC(=O)Nc3ncc(Cc4ccc(C)cc4)s3)C2=O)cc1
CC50 [1]: 37.9 µM (active)

COC(=O)C/C=C1\c2ccccc2C(OC)C1C (configuration not stated)
AC50 (Cytochrome P450 2D6): 0.0794 µM (inconclusive)

O=C(NCC1COc2ccccc2O1)C1CCCN(S(=O)(=O)c2c[nH]cn2)C1 (configuration not stated)
CC50 (HeLa): > 99 µM (not active)

CC(C)c1ccc(N2C(=O)NC(=O)/C(=C\C=C\c3ccco3)C2=O)cc1
CC50 [2]: 37.8 µM (active) | AC50 [3]: 1.23 µM (active) | CC50 [4]: 23.8 µM (active) | EC50 [5]: 19 µM (active)

COc1ccc2oc(C(=O)OCC(=O)Nc3cc(S(=O)(=O)N4CCOCC4)ccc3C)c(C)c2c1
IC50 [6]: 5.76 µM (active) | IC50 [7]: > 111 µM (not active)

CCn1nnc(-c2ccccc2NC(=O)c2cccc(-n3cnnn3)c2)n1
EC50 [8]: > 120 µM (not active) | EC50 [9]: 14.9 µM (active) | IC50 [6]: 13.5 µM (not active) | IC50 [7]: > 111 µM (not active) | EC50 [10]: 22.5 µM (active)

O=C(O)CCn1ccnc1-c1ccccc1
EC50 (Estrogen receptor): 12.5 µM (not active)

COc1ccc(C(C)(C)C)cc1NC(=O)C1CC=CCC1C(=O)O (configuration not stated)
IC50 (Procathepsin L): > 59.6 µM (not active) | IC50 (Aspartyl aminopeptidase): > 73.5 µM (not active) | IC50 (Leucine aminopeptidase): 3.05 µM (active)

CC1Cc2c(-c3ccccc3)nc3c(c2CO1)CN(CCOc1ccccc1)CC3 (configuration not stated)
AC50 (Cytochrome P450 2D6): 5.01 µM (inconclusive) | AC50 (Cytochrome P450 3A4): 3.98 µM (inconclusive)

Cc1cccc(N2CCN(CCNC(=O)Cn3c(=O)c4cccn4c4cccnc43)CC2)c1C
IC50 [11]: > 32 µM (inactive) | IC50 [12]: > 20 µM (inactive) | IC50 [13]: > 32 µM (inactive) | IC50 (Mu-type opioid receptor): 6.33 µM (active)

Cc1cc(-c2nnc(S)n2/N=C/c2cccc([N+](=O)[O-])c2)[nH]n1
IC50 [14]: 3.68 µM (active) | IC50 [15]: > 100 µM (inactive)

Cc1ccc(/C=N/n2c(S)nnc2-c2ccco2)cc1
IC50 [14]: 3.02 µM (active) | IC50 (Large T antigen): 33.6 µM (active) | IC50 [15]: > 100 µM (inactive)

COc1ccc(/C=C/C(=O)NCC(=O)N/N=C/c2cc(Br)ccc2OCc2ccccc2)cc1
CC50 [1]: > 40 µM (active)
